# Test results as given in US20090226527A1, “Particulate-stabilized injectable pharmacutical compositions of posaconazole” (priority 2004, published 2009).
# “And” between values parts separate entries of the source, which are not always exact repeats. Equal entries are not always repeated. Where two headings read alike, the source gives them in different places.
# Test system: infectious agents (strains tested)
# Test: organism not typed
# Assay type: cell-based
smiles,measurement,setting,value
OC(Cn1cncn1)(Cn1cncn1)c1ccc(F)cc1F [FLZ],Geometric Mean MIC,,16.450 µg/mL and 19.027 µg/mL
same,Geometric Mean MIC,Absidia spp,143.675 µg/mL
same,Geometric Mean MIC,Apophysomyces spp,128.000 µg/mL
same,MIC[90],Apophysomyces spp,(128.0) μg/mL
same,Geometric Mean MIC,Aspergillus flavus,220.898 µg/mL
same,MIC[90],Aspergillus fumigatus,512.0 µg/mL
same,Geometric Mean MIC,Aspergillus nidulans,76.109 µg/mL
same,MIC[90],Aspergillus nidulans,(32.0-128.0) μg/mL
same,Geometric Mean MIC,Aspergillus niger,234.753 µg/mL
same,Geometric Mean MIC,Aspergillus sydowii,115.933 µg/mL
same,Geometric Mean MIC,Aspergillus terreus,208.327 µg/mL
same,Geometric Mean MIC,Aspergillus ustus,172.275 µg/mL
same,Geometric Mean MIC,Bipolaris spp,64.000 µg/mL
same,MIC[90],Bipolaris spp,(64.0) μg/mL
same,Geometric Mean MIC,Bjerkandera adusta,4.000 µg/mL
same,MIC[90],Bjerkandera adusta,4.0 µg/mL
same,Geometric Mean MIC,Blastomyces dermatitidis,2.191 µg/mL
same,MIC[90],Blastomyces dermatitidis,16.0 µg/mL
same,Geometric Mean MIC,Candida albicans,0.415 µg/mL
same,MIC[90],Candida albicans,2.0 µg/mL
same,Geometric Mean MIC,Candida dubliniensis,0.454 µg/mL
same,MIC[90],Candida dubliniensis,32.0 µg/mL
same,Geometric Mean MIC,Candida famata,4.084 µg/mL
same,MIC[90],Candida famata,32.0 µg/mL
same,Geometric Mean MIC,Candida glabrata,9.719 µg/mL
same,MIC[90],Candida glabrata,64.0 µg/mL
same,Geometric Mean MIC,Candida guilliermondii,4.000 µg/mL
same,MIC[90],Candida guilliermondii,32.0 µg/mL
same,Geometric Mean MIC,Candida kefyr,0.500 µg/mL
same,MIC[90],Candida kefyr,4.0 µg/mL
same,Geometric Mean MIC,Candida krusei,32.521 µg/mL
same,MIC[90],Candida krusei,64.0 µg/mL
same,Geometric Mean MIC,Candida lusitaniae,0.627 µg/mL
same,MIC[90],Candida lusitaniae,2.0 µg/mL
same,Geometric Mean MIC,Candida parapsilosis,0.910 µg/mL
same,MIC[90],Candida parapsilosis,2.0 µg/mL
same,Geometric Mean MIC,Candida rugosa,3.391 µg/mL
same,MIC[90],Candida rugosa,16.0 µg/mL
same,Geometric Mean MIC,Candida tropicalis,0.961 µg/mL
same,MIC[90],Candida tropicalis,4.0 µg/mL
same,Geometric Mean MIC,Candida zeylanoides,0.354 µg/mL
same,MIC[90],Candida zeylanoides,(0.125-1.0) μg/mL
same,Geometric Mean MIC,Cryptococcus laurentii,5.040 µg/mL
same,MIC[90],Cryptococcus laurentii,(4.0-8.0) μg/mL
same,Geometric Mean MIC,Cryptococcus neoformans,1.781 µg/mL
same,MIC[90],Cryptococcus neoformans,8.0 µg/mL
same,Geometric Mean MIC,Curvularia spp,16.000 µg/mL
same,MIC[90],Curvularia spp,(16.0) μg/mL
same,Geometric Mean MIC,Epidermophyton floccosum,1.447 µg/mL
same,MIC[90],Epidermophyton floccosum,2.0 µg/mL
same,Geometric Mean MIC,Exophiala dermatidis,8.000 µg/mL
same,MIC[90],Exophiala dermatidis,(8.0) μg/mL
same,Geometric Mean MIC,Fonsecae pedrosoi,64.000 µg/mL
same,MIC[90],Fonsecae pedrosoi,(64.0) μg/mL
same,Geometric Mean MIC,Kluyveromyces marxianus,0.500 µg/mL
same,MIC[90],Kluyveromyces marxianus,(0.25-1.0) μg/mL
same,Geometric Mean MIC,Microsporum canis,2.000 µg/mL
same,MIC[90],Microsporum canis,4.0 µg/mL
same,Geometric Mean MIC,Microsporum gypseum,16.000 µg/mL
same,MIC[90],Microsporum gypseum,(4.0-128.0) μg/mL
same,Geometric Mean MIC,Microsporum persicolor,128.000 µg/mL
same,MIC[90],Microsporum persicolor,(128.0) μg/mL
same,Geometric Mean MIC,Mucor spp,207.937 µg/mL
same,Geometric Mean MIC,Paecilomyces spp,141.323 µg/mL
same,Geometric Mean MIC,Paracoccidioides brasiliensis,0.766 µg/mL
same,MIC[90],Paracoccidioides brasiliensis,4.0 µg/mL
same,Geometric Mean MIC,Penicillium spp,220.996 µg/mL
same,Geometric Mean MIC,Pichia anomala,2.670 µg/mL
same,MIC[90],Pichia anomala,4.0 µg/mL
same,Geometric Mean MIC,Pichia etchel,0.125 µg/mL
same,MIC[90],Pichia etchel,(0.125) μg/mL
same,Geometric Mean MIC,Pichia ohmeri,4.000 µg/mL
same,MIC[90],Pichia ohmeri,(4.0) μg/mL
same,Geometric Mean MIC,Pseudallescheria boydii,41.237 µg/mL
same,MIC[90],Pseudallescheria boydii,128.0 µg/mL
same,Geometric Mean MIC,Ramichloridium obovoideum,22.627 µg/mL
same,MIC[90],Ramichloridium obovoideum,(16.0-32.0) μg/mL
same,Geometric Mean MIC,Rhizopus spp,229.461 µg/mL
same,Geometric Mean MIC,Saccharomyces cerevisiae,2.845 µg/mL
same,MIC[90],Saccharomyces cerevisiae,16.0 µg/mL
same,Geometric Mean MIC,Scedosporium apiospermum,84.449 µg/mL
same,Geometric Mean MIC,Trichophyton mentagrophytes,9.190 µg/mL
same,MIC[90],Trichophyton mentagrophytes,64.0 µg/mL
same,Geometric Mean MIC,Trichophyton raubitschekii,128.000 µg/mL
same,MIC[90],Trichophyton raubitschekii,(128.0) μg/mL
same,Geometric Mean MIC,Trichophyton rubrum,4.407 µg/mL
same,MIC[90],Trichophyton rubrum,32.0 µg/mL
same,Geometric Mean MIC,Trichophyton soudanense,128.000 µg/mL
same,MIC[90],Trichophyton soudanense,(128.0) μg/mL
same,Geometric Mean MIC,Trichophyton terrestre,1.000 µg/mL
same,MIC[90],Trichophyton terrestre,(1.0) μg/mL
same,Geometric Mean MIC,Trichophyton tonsurans,3.775 µg/mL
same,MIC[90],Trichophyton tonsurans,32.0 µg/mL
same,Geometric Mean MIC,Trichosporon spp,12.699 µg/mL
same,MIC[90],Trichosporon spp,(4.0-64.0) μg/mL
same,Geometric Mean MIC,Yarrowia lipolytica,1.741 µg/mL
same,MIC[90],Yarrowia lipolytica,(0.125-32.0) μg/mL
